Reference: patent US20080241260A1, “Compositions for Enhanced Absorption of Biologically Active Agents” (priority 2005, published 2008)

System: streptozotocin-induced diabetic rats
Test: Effect of formulations on serum glucose level in diabetic rat model
Format: in vivo, male albino Wistar rats
Settings: S.C., 1 u/kg

With “Insulin solution: Insulin solution, pH 3, given subcutaneously at 1 u/kg as reference” the “% Decrease in serum glucose level After 1 hr” value (1 hr) was 76.62 ± 1.08%, the “% Decrease in serum glucose level After 2 hr” value (2 hr) was 83.26 ± 2.56% and the “% Decrease in serum glucose level After 3 hr” value (3 hr) was 66.75 ± 5.39%. The “% Decrease in serum glucose level After 5 hr” value (5 hr) was 38.26 ± 3.60%.
